# Calls of active or inactive are those of the source. No rule for the calls is given here.
# What was measured:
# Test in all cases: off-target hydrolase engagement by SILAC proteomics – cell-based, ABPP-SILAC, LC-MS, selectivity assay for DAGLb inhibitor project, late-stage follow-up (AID 602339)
# Abhd11 = conditions: mouse cells, hits give low values
# Abhd12 = conditions: mouse cells, hits give low values
# Abhd4 = Abhd4 (UniProt Q8VD66); conditions: mouse cells, hits give low values
# Ache = conditions: mouse cells, hits give low values
# Acot2 = conditions: mouse cells, hits give low values
# [1] = target: Acyl-protein thioesterase 1 (Mus musculus) (UniProt P97823); conditions: mouse cells, Lypla1, hits give low values
# Sequence of Acyl-protein thioesterase 1 (Mus musculus) (P97823 whole entry, looked up): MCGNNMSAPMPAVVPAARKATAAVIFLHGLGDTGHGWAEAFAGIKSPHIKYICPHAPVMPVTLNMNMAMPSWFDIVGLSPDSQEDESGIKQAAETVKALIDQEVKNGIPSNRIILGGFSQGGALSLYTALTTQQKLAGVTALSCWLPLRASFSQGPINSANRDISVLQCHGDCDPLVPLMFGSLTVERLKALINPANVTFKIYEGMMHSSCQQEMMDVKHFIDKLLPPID
# Apeh = conditions: mouse cells, hits give low values
# Bat5 = conditions: mouse cells, hits give low values
# Ctsa = conditions: mouse cells, hits give low values
# D230012E17Rik = conditions: mouse cells, hits give low values
# Ddhd1 = conditions: mouse cells, hits give low values
# [2] = target: Diacylglycerol lipase-beta (Mus musculus) (UniProt Q91WC9); conditions: mouse cells, Daglb, hits give low values
# Sequence of Diacylglycerol lipase-beta (Mus musculus) (Q91WC9 whole entry, looked up): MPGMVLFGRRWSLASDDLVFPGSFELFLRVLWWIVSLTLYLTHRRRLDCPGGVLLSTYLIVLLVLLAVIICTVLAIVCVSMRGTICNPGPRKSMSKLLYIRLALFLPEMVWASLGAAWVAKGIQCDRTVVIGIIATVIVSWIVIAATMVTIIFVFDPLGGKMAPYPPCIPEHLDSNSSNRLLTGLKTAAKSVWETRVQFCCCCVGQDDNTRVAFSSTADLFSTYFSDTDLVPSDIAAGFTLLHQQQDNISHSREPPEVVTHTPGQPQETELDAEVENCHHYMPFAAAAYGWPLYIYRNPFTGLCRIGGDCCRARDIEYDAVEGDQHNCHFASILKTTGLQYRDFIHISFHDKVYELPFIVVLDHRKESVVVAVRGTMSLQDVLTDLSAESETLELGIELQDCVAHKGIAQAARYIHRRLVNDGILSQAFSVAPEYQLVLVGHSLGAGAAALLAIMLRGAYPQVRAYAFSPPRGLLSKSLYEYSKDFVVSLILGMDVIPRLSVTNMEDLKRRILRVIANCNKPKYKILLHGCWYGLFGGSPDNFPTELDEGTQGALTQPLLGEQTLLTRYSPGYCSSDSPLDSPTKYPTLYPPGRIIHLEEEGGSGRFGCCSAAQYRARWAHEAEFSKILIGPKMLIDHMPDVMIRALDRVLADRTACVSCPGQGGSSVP
# Dpp7 = conditions: mouse cells, hits give low values
# Dpp9 = conditions: mouse cells, hits give low values
# Esd = conditions: mouse cells, hits give low values
# Faah = conditions: mouse cells, hits give low values
# Fam108b = conditions: mouse cells, hits give low values
# Fam108c = conditions: mouse cells, hits give low values
# Fasn = conditions: mouse cells, hits give low values
# Htra2 = conditions: mouse cells, hits give low values
# Iah1 = conditions: mouse cells, hits give low values
# Kiaa1363 = conditions: mouse cells, hits give low values
# Lactb = conditions: mouse cells, hits give low values
# Lipe = conditions: mouse cells, hits give low values
# Lonp1 = conditions: mouse cells, hits give low values
# Lypla2 = conditions: mouse cells, hits give low values
# Lypla3 = conditions: mouse cells, hits give low values
# Lyplal1 = conditions: mouse cells, hits give low values
# [3] = target: Monoacylglycerol lipase ABHD6 (Mus musculus) (UniProt Q8R2Y0); conditions: mouse cells, hits give low values
# Sequence of Monoacylglycerol lipase ABHD6 (Mus musculus) (Q8R2Y0 whole entry, looked up): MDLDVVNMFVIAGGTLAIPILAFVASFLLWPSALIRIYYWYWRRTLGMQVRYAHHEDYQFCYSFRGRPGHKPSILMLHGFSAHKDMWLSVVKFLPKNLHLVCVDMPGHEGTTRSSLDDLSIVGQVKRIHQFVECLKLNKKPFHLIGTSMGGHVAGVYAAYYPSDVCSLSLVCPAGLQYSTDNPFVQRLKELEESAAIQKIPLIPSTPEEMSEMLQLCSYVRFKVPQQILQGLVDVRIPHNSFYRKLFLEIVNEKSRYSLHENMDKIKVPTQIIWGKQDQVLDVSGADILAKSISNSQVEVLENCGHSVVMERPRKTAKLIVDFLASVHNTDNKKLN
# Pafah1b2 = conditions: mouse cells, hits give low values
# Pafah1b3 = conditions: mouse cells, hits give low values
# [4] = target: Palmitoyl-protein thioesterase ABHD10, mitochondrial (Mus musculus) (UniProt Q6PE15); conditions: mouse cells, hits give low values
# Sequence of Palmitoyl-protein thioesterase ABHD10, mitochondrial (Mus musculus) (Q6PE15 whole entry, looked up): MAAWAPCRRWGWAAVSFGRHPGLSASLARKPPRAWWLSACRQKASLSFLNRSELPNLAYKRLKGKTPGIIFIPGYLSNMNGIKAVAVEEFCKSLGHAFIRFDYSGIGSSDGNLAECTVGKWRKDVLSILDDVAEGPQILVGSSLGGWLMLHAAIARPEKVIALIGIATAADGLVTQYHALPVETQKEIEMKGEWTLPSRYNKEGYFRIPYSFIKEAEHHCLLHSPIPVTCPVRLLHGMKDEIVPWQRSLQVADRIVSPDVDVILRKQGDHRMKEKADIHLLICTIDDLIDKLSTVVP
# Parl = conditions: mouse cells, hits give low values
# [5] = target: Platelet-activating factor acetylhydrolase 2, cytoplasmic (Mus musculus) (UniProt Q8VDG7); conditions: mouse cells, Pafah2, hits give low values
# Sequence of Platelet-activating factor acetylhydrolase 2, cytoplasmic (Mus musculus) (Q8VDG7 whole entry, looked up): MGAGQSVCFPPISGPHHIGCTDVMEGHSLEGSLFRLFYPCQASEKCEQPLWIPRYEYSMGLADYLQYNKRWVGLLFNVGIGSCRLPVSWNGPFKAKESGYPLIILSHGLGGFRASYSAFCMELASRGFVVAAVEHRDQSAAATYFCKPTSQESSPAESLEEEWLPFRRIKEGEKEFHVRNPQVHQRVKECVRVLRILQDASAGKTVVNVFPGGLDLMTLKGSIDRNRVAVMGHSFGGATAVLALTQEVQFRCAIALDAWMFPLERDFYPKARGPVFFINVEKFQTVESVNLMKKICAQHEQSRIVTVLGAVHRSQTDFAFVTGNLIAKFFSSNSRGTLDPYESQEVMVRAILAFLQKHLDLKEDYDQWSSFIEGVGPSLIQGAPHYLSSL
# Plat = conditions: mouse cells, hits give low values
# Pme1 = conditions: mouse cells, hits give low values
# Pnpla6 = conditions: mouse cells, hits give low values
# Pnpla7 = conditions: mouse cells, hits give low values
# Pnpla8 = conditions: mouse cells, hits give low values
# Ppt2 = conditions: mouse cells, hits give low values
# Prepl = conditions: mouse cells, hits give low values
# [6] = target: Prolyl endopeptidase (Mus musculus) (UniProt Q9QUR6); conditions: mouse cells, Prep, hits give low values
# Sequence of Prolyl endopeptidase (Mus musculus) (Q9QUR6 whole entry, looked up): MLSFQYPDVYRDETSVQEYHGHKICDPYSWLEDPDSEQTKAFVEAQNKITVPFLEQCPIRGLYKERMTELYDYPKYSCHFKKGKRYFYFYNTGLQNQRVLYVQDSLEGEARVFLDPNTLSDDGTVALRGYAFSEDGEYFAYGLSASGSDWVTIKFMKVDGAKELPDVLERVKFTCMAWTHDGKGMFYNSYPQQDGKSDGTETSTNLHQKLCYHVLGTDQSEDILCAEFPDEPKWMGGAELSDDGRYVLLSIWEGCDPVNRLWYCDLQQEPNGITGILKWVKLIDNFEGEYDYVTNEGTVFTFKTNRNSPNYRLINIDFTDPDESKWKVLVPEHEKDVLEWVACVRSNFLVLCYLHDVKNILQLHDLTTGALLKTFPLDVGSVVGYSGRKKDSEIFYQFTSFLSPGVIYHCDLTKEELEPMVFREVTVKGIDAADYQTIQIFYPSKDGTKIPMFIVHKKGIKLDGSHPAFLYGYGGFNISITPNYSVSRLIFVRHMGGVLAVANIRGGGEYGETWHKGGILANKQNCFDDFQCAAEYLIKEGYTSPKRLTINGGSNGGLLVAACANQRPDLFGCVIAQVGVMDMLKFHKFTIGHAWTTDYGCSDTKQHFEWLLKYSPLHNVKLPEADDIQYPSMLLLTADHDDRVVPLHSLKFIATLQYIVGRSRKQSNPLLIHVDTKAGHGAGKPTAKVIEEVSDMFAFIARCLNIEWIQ
# Qrsl1 = conditions: mouse cells, hits give low values
# Scpep1 = conditions: mouse cells, hits give low values
# Serhl = conditions: mouse cells, hits give low values
# Tpp2 = conditions: mouse cells, hits give low values
# Sequence of Abhd4 (Q8VD66 whole entry, looked up): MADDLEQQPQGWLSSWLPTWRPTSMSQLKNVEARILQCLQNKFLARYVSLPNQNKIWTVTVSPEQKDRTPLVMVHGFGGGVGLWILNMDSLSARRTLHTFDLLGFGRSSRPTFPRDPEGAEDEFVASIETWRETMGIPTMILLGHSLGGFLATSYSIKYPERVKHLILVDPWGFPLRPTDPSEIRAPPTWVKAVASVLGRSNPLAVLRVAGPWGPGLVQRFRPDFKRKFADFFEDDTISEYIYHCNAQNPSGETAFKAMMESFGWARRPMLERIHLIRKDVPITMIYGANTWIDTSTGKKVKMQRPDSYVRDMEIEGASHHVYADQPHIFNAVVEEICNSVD
structure (smiles),measurement,setting,value
COc1ccccc1-c1ccc(-c2cn(C(=O)N3CCCCC3Cc3ccccc3)nn2)cc1 (stereo unspecified),SILAC ratio (treated/control probe labeling),Abhd11,1.41 (inactive)
same,SILAC ratio (treated/control probe labeling),Abhd12,1.15 (inactive)
same,SILAC ratio (treated/control probe labeling),Abhd4,0.96 (inactive)
same,SILAC ratio (treated/control probe labeling),Ache,1.39 (inactive)
same,SILAC ratio (treated/control probe labeling),Acot2,1.36 (inactive)
same,SILAC ratio (treated/control probe labeling),[1],0.93 (inactive)
same,SILAC ratio (treated/control probe labeling),Apeh,0.97 (inactive)
same,SILAC ratio (treated/control probe labeling),Bat5,1.33 (inactive)
same,SILAC ratio (treated/control probe labeling),Ctsa,1.5 (inactive)
same,SILAC ratio (treated/control probe labeling),D230012E17Rik,1.19 (inactive)
same,SILAC ratio (treated/control probe labeling),Ddhd1,0.99 (inactive)
same,SILAC ratio (treated/control probe labeling),[2],0.11
same,SILAC ratio (treated/control probe labeling),Dpp7,1.19 (inactive)
same,SILAC ratio (treated/control probe labeling),Dpp9,0.94 (inactive)
same,SILAC ratio (treated/control probe labeling),Esd,1.13 (inactive)
same,SILAC ratio (treated/control probe labeling),Faah,1.06 (inactive)
same,SILAC ratio (treated/control probe labeling),Fam108b,1.16 (inactive)
same,SILAC ratio (treated/control probe labeling),Fam108c,1.2 (inactive)
same,SILAC ratio (treated/control probe labeling),Fasn,1.1 (inactive)
same,SILAC ratio (treated/control probe labeling),Htra2,1.33 (inactive)
same,SILAC ratio (treated/control probe labeling),Iah1,1.06 (inactive)
same,SILAC ratio (treated/control probe labeling),Kiaa1363,1.32 (inactive)
same,SILAC ratio (treated/control probe labeling),Lactb,1.17 (inactive)
same,SILAC ratio (treated/control probe labeling),Lipe,1.12 (inactive)
same,SILAC ratio (treated/control probe labeling),Lonp1,1.86 (inactive)
same,SILAC ratio (treated/control probe labeling),Lypla2,1.01 (inactive)
same,SILAC ratio (treated/control probe labeling),Lypla3,0.97 (inactive)
same,SILAC ratio (treated/control probe labeling),Lyplal1,1.47 (inactive)
same,SILAC ratio (treated/control probe labeling),[3],0.17
same,SILAC ratio (treated/control probe labeling),Pafah1b2,1.03 (inactive)
same,SILAC ratio (treated/control probe labeling),Pafah1b3,0.99 (inactive)
same,SILAC ratio (treated/control probe labeling),[4],1.02 (inactive)
same,SILAC ratio (treated/control probe labeling),Parl,1.07 (inactive)
same,SILAC ratio (treated/control probe labeling),[5],0.98 (inactive)
same,SILAC ratio (treated/control probe labeling),Plat,2.04 (inactive)
same,SILAC ratio (treated/control probe labeling),Pme1,1.08 (inactive)
same,SILAC ratio (treated/control probe labeling),Pnpla6,1.22 (inactive)
same,SILAC ratio (treated/control probe labeling),Pnpla7,1.43 (inactive)
same,SILAC ratio (treated/control probe labeling),Pnpla8,1.26 (inactive)
same,SILAC ratio (treated/control probe labeling),Ppt2,1.37 (inactive)
same,SILAC ratio (treated/control probe labeling),Prepl,1 (inactive)
same,SILAC ratio (treated/control probe labeling),[6],1 (inactive)
same,SILAC ratio (treated/control probe labeling),Qrsl1,1.45 (inactive)
same,SILAC ratio (treated/control probe labeling),Scpep1,1.46 (inactive)
same,SILAC ratio (treated/control probe labeling),Serhl,1.38 (inactive)
same,SILAC ratio (treated/control probe labeling),Tpp2,0.83 (inactive)
